This passage reports IC50 cell viability results from the supplement of paper PMC6580486.

In one experiment the test system is s1-12 (canine undifferentiated pleomorphic sarcoma culture). How it is done:
(§1)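 60-agent targeted drug screens (Drug Screen V3 on epithelioid sarcoma cultures PCB490-3/4/5, PCB495, EPS cell lines ESX, VA-ES-BJ, FU-EPS-1 and SkMc myoblasts; PPTI screen v2.1 on human UPS PCB197 and canine UPS S1-12). 384-well plates, 72 h, CellTiter-Glo viability; IC50 by Hill curve fit. 10000 nM = no IC50 achieved (top reported value).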

The next experiment deals with pcb-00197 (human undifferentiated pleomorphic sarcoma culture). On the procedure:
as §1

The test system of another experiment is PCB490-3 (human epithelioid sarcoma primary culture). On the procedure:
(§2)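 Roche open-access kinase inhibitor screen (223 compounds) on human epithelioid sarcoma primary cultures from three spatially distinct regions of tumor PCB490. 384-well plates, 72 h, CellTiter-Glo viability; IC50 by Hill curve fit. 100000 nM = no IC50 reached. Compound ids carry a plate-well prefix, which is stripped.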

A further experiment deals with PCB490-5 (human epithelioid sarcoma primary culture). On the procedure: as §2
The next experiment has as its system PCB490-4 (human epithelioid sarcoma primary culture). On the procedure: as §2

The structures appear in SMILES notation.

As for `COC1=CC(c2cc3ccccc3[nH]2)=N/C1=C\c1[nH]c(C)cc1C` [obatoclax], the figures for the IC50 cell viability in the experiment with s1-12 and in the experiment with pcb-00197 were 40 nM and 210 nM, respectively.
In the case of `Nc1ncn([C@H]2C[C@H](O)[C@@H](CO)O2)c(=O)n1` [decitabine], the values for the IC50 cell viability in the experiment with s1-12 and in the experiment on pcb-00197 were 330 nM and more than 10000 nM, respectively.
On to `CC(C)C[C@H](NC(=O)[C@H](CCc1ccccc1)NC(=O)CN1CCOCC1)C(=O)N[C@@H](Cc1ccccc1)C(=O)N[C@@H](CC(C)C)C(=O)[C@@]1(C)CO1` [carfilzomib], for which the figures for the IC50 cell viability in the experiment with s1-12 and in the experiment on pcb-00197 were 990 nM and 470 nM, respectively.
The corresponding values for `CC/C(=C(\c1ccccc1)c1ccc(OCCN(C)C)cc1)c1ccccc1` [Tamoxifen] are more than 10000 nM and more than 10000 nM.
The corresponding values for `CO[C@H]1C[C@@H]2CC[C@@H](C)[C@@](O)(O2)C(=O)C(=O)N2CCCC[C@H]2C(=O)O[C@H]([C@H](C)C[C@@H]2CC[C@@H](OC(=O)C(C)(CO)CO)[C@H](OC)C2)CC(=O)[C@H](C)/C=C(\C)[C@@H](O)[C@@H](OC)C(=O)[C@H](C)C[C@H](C)/C=C/C=C/C=C/1C` [temsirolimus] are more than 10000 nM and more than 10000 nM.
Turning to `Cc1[nH]c2ccccc2c1CCNCc1ccc(/C=C/C(=O)NO)cc1` [panobinostat], the figures for the IC50 cell viability in the experiment with s1-12 and with pcb-00197 were 100 nM and 1050 nM, respectively.
Regarding `CCCS(=O)(=O)Nc1ccc(F)c(C(=O)c2c[nH]c3ncc(-c4ccc(Cl)cc4)cc23)c1F` [vemurafenib], the IC50 cell viability with s1-12 and with pcb-00197 was more than 10000 nM throughout.
As to `COc1cc(Nc2ncc(F)c(Nc3ccc4c(n3)N(COP(=O)(O)O)C(=O)C(C)(C)O4)n2)cc(OC)c1OC` [Fostamatinib], the IC50 cell viability is 730 nM in the experiment on s1-12 and 4330 nM in the experiment with pcb-00197.
With `CNC(=O)CN1CCC(Oc2cc3c(Nc4cccc(Cl)c4F)ncnc3cc2OC)CC1` [AZD-8931], the IC50 cell viability in the experiment on s1-12 and in the experiment on pcb-00197 was more than 10000 nM throughout.
Consider `CCN(CC)CCCC(C)Nc1c2ccc(Cl)cc2nc2ccc(OC)cc12` (stereo not given) [quinacrine], for which the IC50 cell viability in the experiment with s1-12 is 990 nM; in the experiment with pcb-00197 it was 1570 nM.
The corresponding values for `Oc1c2ccccc2c2c3c(cccc13)N=N2` are 1360 nM and more than 10000 nM.
For `CC(/C=C/C(=O)NO)=C\[C@@H](C)C(=O)c1ccc(N(C)C)cc1` [trichostatin], in that order: 870 nM and more than 10000 nM.
For `CN(C)c1ccccc1CN1CCCN(Cc2ccccc2N(C)C)C1c1ccncc1` [GANT61], in that order: more than 10000 nM and more than 10000 nM.
`COc1cc2nccc(Oc3ccc(NC(=O)C4(C(=O)Nc5ccc(F)cc5)CC4)cc3)c2cc1OC` [Cabozantinib]: the IC50 cell viability in the experiment on s1-12 and in the experiment with pcb-00197 was more than 10000 nM in each case.
In the case of `CN1CCN(CCOc2cc(OC3CCOCC3)c3c(Nc4c(Cl)ccc5c4OCO5)ncnc3c2)CC1` [Saracatinib], the IC50 cell viability in the experiment with s1-12 is 1510 nM; with pcb-00197 it was more than 10000 nM.
For `Cn1c(=O)n(-c2ccc(C(C)(C)C#N)cc2)c2c3cc(-c4cnc5ccccc5c4)ccc3ncc21` [BEZ 235], in that order: 220 nM and 570 nM.
For `N#Cc1ccc(COC[C@H]2O[C@@H](n3c(NCc4ccc(Cl)c(Cl)c4)nc4c(N)ncnc43)[C@H](O)[C@@H]2O)cc1`, the IC50 cell viability in the experiment on s1-12 and in the experiment with pcb-00197 was more than 10000 nM each time.
`C[C@@]1(C(=O)Nc2ccc(F)nc2)CCCN1c1nc(Nc2cc(C3CC3)n[nH]2)c2cccn2n1`: the figures for the IC50 cell viability in the experiment with s1-12 and in the experiment on pcb-00197 were 10 nM and 2350 nM, respectively.
With `CN(C)CC[C@H](CSc1ccccc1)Nc1ccc(S(=O)(=O)NC(=O)c2ccc(N3CCN(Cc4ccccc4-c4ccc(Cl)cc4)CC3)cc2)cc1[N+](=O)[O-]` [ABT 737], the IC50 cell viability in the experiment on s1-12 is 1060 nM; in the experiment with pcb-00197, more than 10000 nM.
Consider `CS(=O)(=O)c1ccc(C(=O)Nc2ccc(Cl)c(-c3ccccn3)c2)c(Cl)c1` [vismodegib], for which the IC50 cell viability is 2750 nM with s1-12 and more than 10000 nM in the experiment on pcb-00197.
For `Nc1cccc2c1CN(C1CCC(=O)NC1=O)C2=O` (stereo not given) [Lenalidomide], the values for the IC50 cell viability with s1-12 and in the experiment with pcb-00197 were 2850 nM and more than 10000 nM, respectively.
On to `C[C@]1(c2nc3c(C(N)=O)cccc3[nH]2)CCCN1` [veliparib], for which the IC50 cell viability in the experiment on s1-12 and in the experiment on pcb-00197 was more than 10000 nM each time.
As for `COc1cc(Nc2ncc3c(n2)-c2ccc(Cl)cc2C(c2c(F)cccc2OC)=NC3)ccc1C(=O)O` [MLN8237], the IC50 cell viability in the experiment on s1-12 amounted to 980 nM; in the experiment with pcb-00197, 2740 nM.
The corresponding values for `Cc1ccc(C(=O)Nc2ccc(CN3CCN(C)CC3)c(C(F)(F)F)c2)cc1C#Cc1cnc2cccnn12` [ponatinib] are 160 nM and 4430 nM.
On to `CCN(CCCOc1ccc2c(Nc3cc(CC(=O)Nc4cccc(F)c4)[nH]n3)ncnc2c1)CCOP(=O)(O)O` [barasertib], for which the IC50 cell viability with s1-12 and in the experiment with pcb-00197 was more than 10000 nM throughout.
For the compound `CNC(=O)c1cc(Oc2ccc(NC(=O)Nc3ccc(Cl)c(C(F)(F)F)c3)cc2)ccn1` [sorafenib], the IC50 cell viability in the experiment on s1-12 was 6430 nM; in the experiment with pcb-00197 it was more than 10000 nM.
The corresponding values for `CC1=C(/C=C/C(C)=C/C=C/C(C)=C/C(=O)O)C(C)(C)CCC1` [retinoic acid] are 2040 nM and more than 10000 nM.
For `N#CC[C@H](C1CCCC1)n1cc(-c2ncnc3[nH]ccc23)cn1` [ruxolitinib], in that order: 6930 nM and more than 10000 nM.
For the compound `COc1nc(C)cnc1NS(=O)(=O)c1cccnc1-c1ccc(-c2nnco2)cc1` [zibotentan], the IC50 cell viability with s1-12 and in the experiment on pcb-00197 was more than 10000 nM throughout.
As to `CN1CC[C@H](c2c(O)cc(O)c3c(=O)cc(-c4ccccc4Cl)oc23)[C@H](O)C1` [Alvocidib], the IC50 cell viability in the experiment with s1-12 was found to be 10 nM; in the experiment on pcb-00197, 260 nM.
With `NC1(c2ccc(-c3nc4ccn5c(=O)[nH]nc5c4cc3-c3ccccc3)cc2)CCC1` [MK-2206], the IC50 cell viability is 1090 nM in the experiment on s1-12 and more than 10000 nM in the experiment with pcb-00197.
On to `COc1cc(F)c(F)c(F)c1C(=O)c1cnc(NC2CCN(S(C)(=O)=O)CC2)nc1N`, for which the IC50 cell viability was more than 100000 nM in the experiment with PCB490-3, 7140 nM in the experiment with PCB490-5 and 4470 nM with PCB490-4.
As to `COc1cc[nH]c1/C=C1\C(=O)Nc2ccc(F)c(C#CC3(O)CCNCC3)c21`, the IC50 cell viability is more than 100000 nM in the experiment with PCB490-3, 670 nM with PCB490-5 and 1000 nM with PCB490-4.
The corresponding values for `Cn1cc(C2=C(c3cn(CCO)c4ccccc34)C(=O)NC2=O)c2ccccc21` are more than 100000 nM, more than 100000 nM and more than 100000 nM.
The corresponding values for `Nc1c(C(=O)c2cccc(C#CCO)c2)cnn1-c1ccc(F)cc1` are more than 100000 nM, more than 100000 nM and more than 100000 nM.
With `Cn1cc(C2=C(Oc3ccccc3)C(=O)NC2=O)c2ccccc21`, the IC50 cell viability in the experiment on PCB490-3, in the experiment on PCB490-5 and with PCB490-4 was more than 100000 nM each time.
With `CS(=O)(=O)N1CCC(Nc2ncc(C(=O)c3c(F)cccc3F)c(N)n2)CC1`, the IC50 cell viability with PCB490-3, in the experiment on PCB490-5 and in the experiment on PCB490-4 was more than 100000 nM each time.
